According to patent US5753617A, “Peptide inhibitors of cellular adhesion” (Centocor, Inc., priority 1995, dated 1998):
pIC50: −log10 of the molar value. Where a SMILES comes first, the peptide text is derived from it. Bridges are numbered along the chain shown (N, C = ends). [ ]: non-standard residue; d: D form. 2Nal = N[C@@H](Cc1ccc2ccccc2c1)C(=O)O; dThz = O=C(O)[C@H]1CSCN1

Target: T1, P-selectin (Homo sapiens, UniProt P16109)
T1 construct: P-selectin is isolated from human platelet lysates; from tissue; host or cells: human platelets (outdated platelet packs from a blood bank)
T1 sequence (P16109 42-830): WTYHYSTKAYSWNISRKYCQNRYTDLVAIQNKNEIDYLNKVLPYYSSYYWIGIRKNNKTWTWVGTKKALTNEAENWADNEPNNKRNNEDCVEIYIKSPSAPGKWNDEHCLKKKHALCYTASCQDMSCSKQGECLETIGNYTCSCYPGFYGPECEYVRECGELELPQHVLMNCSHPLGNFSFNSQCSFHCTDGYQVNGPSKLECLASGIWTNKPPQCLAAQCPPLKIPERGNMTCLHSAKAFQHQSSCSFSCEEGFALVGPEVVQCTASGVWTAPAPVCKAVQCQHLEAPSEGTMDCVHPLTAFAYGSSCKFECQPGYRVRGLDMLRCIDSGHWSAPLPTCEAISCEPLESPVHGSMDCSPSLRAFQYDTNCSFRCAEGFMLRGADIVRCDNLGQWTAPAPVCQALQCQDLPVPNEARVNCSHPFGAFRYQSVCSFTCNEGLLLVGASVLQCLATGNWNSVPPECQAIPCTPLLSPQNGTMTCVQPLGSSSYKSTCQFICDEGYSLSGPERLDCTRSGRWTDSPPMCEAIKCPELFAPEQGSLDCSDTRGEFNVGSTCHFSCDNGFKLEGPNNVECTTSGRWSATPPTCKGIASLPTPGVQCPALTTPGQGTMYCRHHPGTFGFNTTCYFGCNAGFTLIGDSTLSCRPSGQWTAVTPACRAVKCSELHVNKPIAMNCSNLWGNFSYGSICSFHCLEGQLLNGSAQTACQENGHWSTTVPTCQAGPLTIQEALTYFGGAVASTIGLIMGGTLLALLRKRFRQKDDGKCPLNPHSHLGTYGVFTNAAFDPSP
Test: Inhibition of human neutrophil adhesion to purified P-selectin immobilized on plastic wells
Format: cell-based
Conditions: human neutrophils, purified human P-selectin
Source text: Peptides can be screened for their ability to inhibit adhesion to cells, for example, neutrophil adhesion to purified P-selectin immobilized on plastic wells, using the assay described by Geng, et al., Nature 343, 757-760 (1990). Human neutrophils are isolated from heparinized whole blood by density gradient centrifugation on Mono-Poly resolving media, Flow Laboratories. Neutrophil suspensions are greater than 98% pure and greater than 95% viable by trypan blue exclusion. For adhesion assays, neutrophils are suspended at a concentration of 2×10^6 cells/mL in Hanks' balanced salt solution containing 1.26 mM Ca^2+ and 0.81 mM Mg^2+ (HBSS, Gibco) with […] human serum albumin (HBSS/HSA). Adhesion assays are conducted in triplicate in 96-well microliter plates, Corning, incubated at 4° C. overnight with 50 microliters of various protein solutions. P-selectin is isolated from human platelet lysates by immunoaffinity chromatography on antibody S12-Sepharose™ and ion-exchange chromatography on a Mono-Q™ column (FLPC, Pharmacia Fine Chemicals), as follows. Outdated human platelet packs (100 units) obtained from a blood bank and stored at 4° C. are pooled, adjusted to 5 mM EDTA at pH 7.5, centrifuged at 4,000 rpm for 30 minutes in 1 liter bottles, then washed three times with 1 liter of 0.1M NaCl, 20 mM Tris pH 7.5 (TBS), 5 mM EDTA, 5 mM benzamidine. The pellets are then resuspended in a minimum amount of wash buffer and made 1 mM in DIFP, then frozen in 50 mL screwtop tubes at -80° C. The frozen platelets are thawed and resuspended in 50 mL TBS, 5 mM benzamidine, 5 mM EDTA pH 7.5, […]. The suspension is frozen and thawed two times in a dry ice-acetone bath using a 600 mL lyophilizing flask, then homogenized in a glass/teflon mortar and pestle and made 1 mM in DIFP. The NaCl concentration is adjusted to 0.5M with a stock solution of 4M NaCl. After stirring the suspension at 4° C., it is centrifuged in polycarbonate tubes at 33,000 rpm for 60 minutes at 4° C. The supernatant (0.5M NaCl wash) is removed and saved; this supernatant contains the soluble form of P-selectin. Care is taken not to remove the top part of the pellet with the supernatant. The pellets are then homogenized in extraction buffer (TBS, 5 mM benzamidine, 5 mM EDTA, pH 7.5, 100 μM leupeptin, 2% Triton X-100). After centrifugation at 19,500 rpm for 25 minutes at 4° C., the supernatant is removed. The extraction procedure is repeated with the pellet and the supernatant is combined with the first supernatant. The combined extracts, which contain the membrane form of P-selectin, are adjusted to 0.5M NaCl. The soluble fraction (0.5M NaCl wash) and the membrane extract (also adjusted to 0.5M NaCl) are absorbed with separate pools of the monoclonal antibody S12 (directed to P-selectin) previously couple […]) at 5 mg/mL for 2 hours at 4° C. After letting the resins settle, the supernatants are removed. The S12 Affigel containing bound GMP-140 is then loaded into a column and washed overnight at 4° C. with 400 mL of 0.5M NaCl, 20 mM Tris pH 7.5, 0.01% Lubrol PX. Bound P-selectin is eluted from the S12 Affigel with 100 mL of 80% ethylene glycol, 1 mM MES pH 6.0, 0.01% Lubrol PX. Peak fractions with absorbance at 280 nm are pooled. Eluates are dialyzed against TBS with 0.05% Lubrol, then applied to a Mono Q column (FPLC from Pharmacia). The concentrated protein is step eluted with 2M NaCl, 20 mM Tris pH 7.5 (plus 0.05% Lubrol PX for the membrane fraction). Peak fractions are dialyzed into TBS pH 7.5 (plus 0.05% Lubrol PX for the membrane fraction). P-selectin is plated at 5 micrograms/mL and the control proteins: human serum albumin (Alb), platelet glycoprotein IIb/IIIa (IIb), von Willebrand factor (vWF), fibrinogen (FIB), thrombomodulin (TM), gelatin (GEL) or human serum (HS), are added at 50 micrograms/mL. […]

Row | biological activity / inhibiting neutrophil adhesion to P-selectin (result in words) | Compound
1 | inactive | CC[C@H](C)[C@H](NC(=O)[C@H](CCCCN)NC(=O)[C@@H](N)CCCNC(=N)N)C(=O)NCC(=O)NCC(=O)N[C@H]1CCCCNC(=O)CC[C@@H](C(N)=O)NC(=O)[C@H](Cc2c[nH]c3ccccc23)NC(=O)[C@H]([C@@H](C)O)NC(=O)[C@H](Cc2c[nH]c3ccccc23)NC1=O [SEQ ID NO:1, Arg-Lys-Ile-Gly-Gly-cyclo(Lys-Trp-Thr-Trp-Glu)-NH2] (H-RKIGGKWTWE-NH2; lactam 6-10)

Same assay, conditions: inhibiting the binding of human neutrophils to P-selectin

Row | Compound | pIC50
2 | CC(C)[C@@H](NC(=O)[C@@H](Cc1c[nH]c2ccccc12)NC(=O)[C@H](NC(=O)[C@@H](Cc1c[nH]c2ccccc12)NC(=O)[C@H]1CSSC[C@@H](NC(=O)[C@@H](CCCCN)NC(=O)[C@H](N)CCCNC(=N)N)C(=O)NCC(=O)N[C@@H](CCCNC(=N)N)C(=O)N1)[C@H](C)O)C(N)=O [(40)] (H-[dR][dK][dC]GR[dC][dW][dT][dW][dV]-NH2; disulfide 3-6) | 3.49
3 | CC(C)[C@@H](NC(=O)[C@@H](Cc1c[nH]c2ccccc12)NC(=O)[C@H](NC(=O)[C@@H](Cc1c[nH]c2ccccc12)NC(=O)[C@H]1CSSC[C@@H](NC(=O)[C@@H](CCCCN)NC(=O)[C@H](N)CCCNC(=N)N)C(=O)N2CCC[C@@H]2C(=O)NCC(=O)N1)[C@H](C)O)C(N)=O [(15)] (H-[dR][dK][dC][dP]G[dC][dW][dT][dW][dV]-NH2; disulfide 3-6) | 3.31
4 | CC(C)[C@@H](NC(=O)[C@@H](Cc1c[nH]c2ccccc12)NC(=O)[C@H](NC(=O)[C@@H](Cc1c[nH]c2ccccc12)NC(=O)[C@H]1CSSC[C@@H](NC(=O)[C@@H](CCCCN)NC(=O)[C@H](N)CCCNC(=N)N)C(=O)NCC(=O)N2CSC[C@@H]2C(=O)N1)[C@H](C)O)C(N)=O [(58)] (H-[dR][dK][dC]G[dThz][dC][dW][dT][dW][dV]-NH2; disulfide 3-6) | 3.73
5 | CC(C)[C@@H](NC(=O)[C@@H](Cc1c[nH]c2ccccc12)NC(=O)[C@H](NC(=O)[C@@H](Cc1c[nH]c2ccccc12)NC(=O)[C@H]1CSSC[C@@H](NC(=O)[C@@H](CCCCN)NC(=O)[C@H](N)CCCNC(=N)N)C(=O)NCC(=O)N[C@@H](Cc2ccc3ccccc3c2)C(=O)N1)[C@H](C)O)C(N)=O [(73)] (H-[dR][dK][dC]G[2Nal][dC][dW][dT][dW][dV]-NH2; disulfide 3-6) | 5.49
6 | CC[C@H](C)[C@@H]1NC(=O)CNC(=O)CNC(=O)[C@H]([C@@H](C)CC)NC(=O)[C@H](CCCCN)NC(=O)[C@@H](N)CSSC[C@@H](C(N)=O)NC(=O)[C@H](Cc2c[nH]c3ccccc23)NC(=O)[C@H]([C@@H](C)O)NC(=O)[C@H](Cc2c[nH]c3ccccc23)NC1=O [(3)] (H-CKIGGIWTWC-NH2; disulfide 1-10) | 3.88
7 | CC(C)[C@@H](NC(=O)[C@@H](Cc1c[nH]c2ccccc12)NC(=O)[C@H](NC(=O)[C@@H](Cc1ccccc1)NC(=O)[C@H]1CSSC[C@@H](NC(=O)[C@@H](CCCCN)NC(=O)[C@H](N)CCCNC(=N)N)C(=O)NCC(=O)NCC(=O)N1)[C@H](C)O)C(N)=O [(14)] (H-[dR][dK][dC]GG[dC][dF][dT][dW][dV]-NH2; disulfide 3-6) | 4.40
8 | CC(C)[C@@H](NC(=O)[C@@H](Cc1c[nH]c2ccccc12)NC(=O)[C@H](NC(=O)[C@@H](CCC(N)=O)NC(=O)[C@H]1CSSC[C@@H](NC(=O)[C@@H](CCCCN)NC(=O)[C@H](N)CCCNC(=N)N)C(=O)NCC(=O)N[C@@H](Cc2ccccc2)C(=O)N1)[C@H](C)O)C(N)=O [(46)] (H-[dR][dK][dC]GF[dC][dQ][dT][dW][dV]-NH2; disulfide 3-6) | 4.32
9 | CC(C)[C@@H](NC(=O)[C@H]1CCCN1C(=O)[C@H](NC(=O)[C@@H](Cc1c[nH]c2ccccc12)NC(=O)[C@H]1CSSC[C@@H](NC(=O)[C@@H](CCCCN)NC(=O)[C@H](N)CCCNC(=N)N)C(=O)NCC(=O)N[C@@H](Cc2ccccc2)C(=O)N1)[C@H](C)O)C(N)=O [(77)] (H-[dR][dK][dC]GF[dC][dW][dT][dP][dV]-NH2; disulfide 3-6) | 2.64
10 | CC[C@H](C)[C@@H]1NC(=O)CNC(=O)[C@@H](NC(=O)[C@@H](NC(=O)[C@H](CCCCN)NC(=O)[C@@H](N)CCCNC(=N)N)[C@@H](C)CC)CCCCNC(=O)CC[C@@H](C(=O)N[C@@H](Cc2c[nH]c3ccccc23)C(=O)N[C@H](C(N)=O)C(C)C)NC(=O)[C@H](Cc2c[nH]c3ccccc23)NC1=O [(31)] (H-RKIKGIWEWV-NH2; lactam 4-8) | 4.74

Next, values leading:

Row | pIC50 | Compound
11 | 3.63 | CC(C)[C@@H](NC(=O)[C@@H](Cc1c[nH]c2ccccc12)NC(=O)[C@H](NC(=O)[C@@H](Cc1c[nH]c2ccccc12)NC(=O)[C@H]1CSSC[C@@H](NC(=O)[C@@H](CCC(=O)O)NC(=O)[C@H](N)CCCNC(=N)N)C(=O)NCC(=O)N[C@@H](Cc2ccccc2)C(=O)N1)[C@H](C)O)C(N)=O [(112)] (H-[dR][dE][dC]GF[dC][dW][dT][dW][dV]-NH2; disulfide 3-6)
12 | 4.37 | CC(C)[C@@H](NC(=O)[C@@H](Cc1c[nH]c2ccccc12)NC(=O)[C@H](NC(=O)[C@@H](Cc1c[nH]c2ccccc12)NC(=O)[C@@H]1CSSC[C@@H](NC(=O)[C@@H](CCCCN)NC(=O)[C@H](N)CCCNC(=N)N)C(=O)NCC(=O)N[C@@H](Cc2ccccc2)C(=O)N1)[C@H](C)O)C(N)=O [(91)] (H-[dR][dK][dC]GFC[dW][dT][dW][dV]-NH2; disulfide 3-6)
13 | 5.51 | CC(C)[C@@H](NC(=O)[C@@H](Cc1c[nH]c2ccccc12)NC(=O)[C@H](NC(=O)[C@H](Cc1c[nH]c2ccccc12)NC(=O)[C@H]1CSSC[C@@H](NC(=O)[C@@H](CCCCN)NC(=O)[C@H](N)CCCNC(=N)N)C(=O)NCC(=O)N[C@@H](Cc2ccccc2)C(=O)N1)[C@H](C)O)C(N)=O [(99)] (H-[dR][dK][dC]GF[dC]W[dT][dW][dV]-NH2; disulfide 3-6)
14 | 4.62 | CC[C@@H](C)[C@@H](NC(=O)[C@@H](CCCCN)NC(=O)[C@H](N)CCCNC(=N)N)C(=O)NCC(=O)N[C@@H]1CSSC[C@H](C(=O)N[C@@H](C(=O)N[C@@H](C(N)=O)C(C)C)[C@H](C)O)NC(=O)[C@@H](Cc2c[nH]c3ccccc23)NC(=O)[C@@H]([C@H](C)CC)NC1=O [(108)] (H-[dR][dK][dI]G[dC][dI][dW][dC][dT][dV]-NH2; disulfide 5-8)
